The target of this assay is c-kit (Homo sapiens (Human), UniProt P10721). Briefly: Mo7e cell proliferation assay (SCF dependent proliferation). It counts as cell-based. The conditions noted are these: Mo7e cells stimulated with human recombinant SCF, 48 hours. How it is done: Compounds of Formula (I) and Formula (II) provided herein were assayed to measure their capacity to inhibit c-kit and PDGFR kinases using the appropriate assay described below: c-Kit inhibition was evaluated using the Mo7e cell proliferation assay, and PDGFR inhibition was evaluated using the Rat A10 cell proliferation assay and the Human TG/HA-VSMC cell proliferation assay.
Sequence of c-kit (P10721 26-976): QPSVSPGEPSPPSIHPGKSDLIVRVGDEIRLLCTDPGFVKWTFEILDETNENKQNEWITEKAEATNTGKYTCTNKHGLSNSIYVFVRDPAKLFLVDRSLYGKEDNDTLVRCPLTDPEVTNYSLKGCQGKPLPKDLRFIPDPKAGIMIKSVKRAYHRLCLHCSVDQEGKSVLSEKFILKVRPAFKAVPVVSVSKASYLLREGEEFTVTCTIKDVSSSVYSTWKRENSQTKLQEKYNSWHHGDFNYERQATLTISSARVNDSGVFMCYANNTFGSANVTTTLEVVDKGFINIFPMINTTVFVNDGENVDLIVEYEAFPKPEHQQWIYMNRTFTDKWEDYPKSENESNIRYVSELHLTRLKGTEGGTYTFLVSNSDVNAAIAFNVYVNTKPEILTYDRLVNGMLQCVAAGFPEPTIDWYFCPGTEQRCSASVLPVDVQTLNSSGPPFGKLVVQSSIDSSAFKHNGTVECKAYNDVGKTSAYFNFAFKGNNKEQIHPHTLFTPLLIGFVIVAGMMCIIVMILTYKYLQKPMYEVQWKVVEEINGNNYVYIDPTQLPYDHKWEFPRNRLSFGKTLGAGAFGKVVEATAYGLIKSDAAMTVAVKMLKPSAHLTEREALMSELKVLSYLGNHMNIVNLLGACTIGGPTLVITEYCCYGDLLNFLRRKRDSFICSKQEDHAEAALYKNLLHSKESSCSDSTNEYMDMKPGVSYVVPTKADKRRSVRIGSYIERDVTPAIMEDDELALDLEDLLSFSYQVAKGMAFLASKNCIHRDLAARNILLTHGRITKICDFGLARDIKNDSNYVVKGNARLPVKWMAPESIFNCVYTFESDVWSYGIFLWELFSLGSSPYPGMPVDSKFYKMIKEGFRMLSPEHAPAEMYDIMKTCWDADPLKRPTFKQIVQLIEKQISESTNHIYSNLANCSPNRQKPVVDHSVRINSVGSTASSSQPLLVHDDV
Mo7e Cell Proliferation Assay
The compounds of Table 1 and Table 2 were tested for inhibition of SCF dependent proliferation using human Mo7e cells which endogenously express c-kit in a 384 well format. […] After 48 hours of incubation at 37° C., cell viability was measured by adding 25 uL of CellTiter Glo (Promega) to the cells and the luminescence was measured by a CLIPR CCD camera (Molecular Devices).
The IC50 value is given as that concentration of the test compound in question that provoke a response halfway between the baseline and maximum responses.

pIC50: −log10 of the molar value.

As to `Cc1ccc(-c2noc([C@H]3CC3(F)F)n2)cc1NC(=O)c1cnc2ccccn12` (stereo in doubt) [F87, N-(5-(5-(2,2-difluorocyclopropyl)-1,2,4-oxadiazol-3-yl)-2-methylphenyl)imidazo[1,2-a]pyridine-3-carboxamide], the pIC50 (usually −log10 of the IC50, conventionally taken in molar units) (1% FBS) was 7.34.

With `Cc1ccc(-c2noc([C@@H]3CC3(F)F)n2)cc1NC(=O)c1cnc2ccccn12` (stereo in doubt) [F88, N-(5-(5-(2,2-difluorocyclopropyl)-1,2,4-oxadiazol-3-yl)-2-methylphenyl)imidazo[1,2-a]pyridine-3-carboxamide], the negative-log IC50 (pIC50) (1% FBS) is 7.18.

For the compound `Cc1ccc(-c2nc(C3CC(F)(F)C3)no2)cc1NC(=O)c1cnc2ccccn12` [F1], where the note is “1% FBS”, the negative logarithm of the IC50 (pIC50) was 7.62.

As to `Cc1ccc(-c2noc(C3CCC(=O)C3)n2)cc1NC(=O)c1cnc2ccccn12` (stereo not drawn) [F2], the negative logarithm of the IC50 (pIC50) (20% FBS (values marked *)) is 7.24.

For the compound `Cc1ccc(-c2noc(C3CC(C)(O)C3)n2)cc1NC(=O)c1cnc2ccccn12` (stereo not drawn) [F3], the pIC50 (20% FBS (values marked *)) was 6.79.

For `Cc1ccc(-c2noc(C3CC(=NO)C3)n2)cc1NC(=O)c1cnc2ccccn12` (stereo not drawn) [F4], the pIC50 (1% FBS) is 7.66.

Take `Cc1ccc(-c2noc(C3CCC(F)(F)CC3)n2)cc1NC(=O)c1cnc2ccccn12` [F5]: the negative-log IC50 (pIC50) (1% FBS) was 7.62.

As for `Cc1ccc(-c2noc([C@H]3C[C@@](C)(O)C3)n2)cc1NC(=O)c1cnc2ccccn12` [F6, N-(5-(5-((1s,3s)-3-hydroxy-3-methylcyclobutyl)-1,2,4-oxadiazol-3-yl)-2-methylphenyl)imidazo[1,2-a]pyridine-3-carboxamide], the negative-log IC50 (pIC50) (1% FBS) is 6.92.

Regarding `CON=C1CC(c2nc(-c3ccc(C)c(NC(=O)c4cnc5ccccn45)c3)no2)C1` (stereo not drawn) [F7, N-(5-(5-(3-(methoxyimino)cyclobutyl)-1,2,4-oxadiazol-3-yl)-2-methylphenyl)imidazo[1,2-a]pyridine-3-carboxamide], the pIC50 (1% FBS) was 7.82.

With `Cc1ccc(-c2noc(C3CC4(C3)OCCO4)n2)cc1NC(=O)c1cnc2ccccn12` [F8, N-(5-(5-(5,8-dioxaspiro[3.4]octan-2-yl)-1,2,4-oxadiazol-3-yl)-2-methylphenyl)imidazo[1,2-a]pyridine-3-carboxamide], where the note is “1% FBS”, the negative logarithm of the IC50 (pIC50) was 7.26.

Turning to `Cc1ccc(-c2noc(C3CC4(C3)OC[C@@H](C)O4)n2)cc1NC(=O)c1cnc2ccccn12` (stereo partly drawn) [F9], the pIC50 (1% FBS) was 7.28.

With `Cc1ccc(-c2noc(C3CC4(C3)OCCCO4)n2)cc1NC(=O)c1cnc2ccccn12` [F10], the pIC50 (1% FBS) was 7.28.

For `Cc1ccc(-c2noc(C3CC(=O)C3)n2)cc1NC(=O)c1cnc2ccccn12` [F11], for the setting “20% FBS (values marked *)”, the negative logarithm of the IC50 (pIC50) is 7.39.

As to `Cc1ccc(-c2noc(C3CC4(C3)OC[C@H](C)O4)n2)cc1NC(=O)c1cnc2ccccn12` (stereo partly drawn) [F12], the negative-log IC50 (pIC50) (1% FBS) is 7.92.

For the compound `CCON=C1CC(c2nc(-c3ccc(C)c(NC(=O)c4cnc5ccccn45)c3)no2)C1` (stereo not drawn) [F14], for the setting “1% FBS”, the negative-log IC50 (pIC50) was 7.92.

For the compound `Cc1ccc(-c2noc(C3CC(=NOCC4CC4)C3)n2)cc1NC(=O)c1cnc2ccccn12` (stereo not drawn) [F15], the pIC50 (1% FBS) is 7.46.

With `Cc1ccc(-c2noc(C3CC(=NOC(C)C)C3)n2)cc1NC(=O)c1cnc2ccccn12` (stereo not drawn) [F16], the negative logarithm of the IC50 (pIC50) (1% FBS) is 7.18.

With `Cc1ccc(-c2noc([C@H]3C[C@H](N)C3)n2)cc1NC(=O)c1cnc2ccccn12` [F17], the pIC50 (1% FBS) was 6.96.

With `COCCO[C@H]1C[C@@H](c2nc(-c3ccc(C)c(NC(=O)c4cnc5ccccn45)c3)no2)C1` [F18, N-(5-(5-((1s,3s)-3-(2-methoxyethoxy)cyclobutyl)-1,2,4-oxadiazol-3-yl)-2-methylphenyl)imidazo[1,2-a]pyridine-3-carboxamide], the pIC50 (1% FBS) was 7.60.

`[2H]C([2H])([2H])O[C@H]1C[C@@H](c2nc(-c3ccc(C)c(NC(=O)c4cnc5ccccn45)c3)no2)C1` [F19]: the negative-log IC50 (pIC50) (1% FBS) was 8.05.

With `COCC1(c2nc(-c3ccc(C)c(NC(=O)c4cnc5ccccn45)c3)no2)CC1` [F20], the pIC50 (1% FBS) is 7.31.

`Cc1ccc(-c2noc(C3(NC(=O)OC(C)(C)C)CC3)n2)cc1NC(=O)c1cnc2ccccn12` [F21]: the negative-log IC50 (pIC50) (1% FBS) was 7.05.

Consider `Cc1ccc(-c2noc(C3(NS(C)(=O)=O)CC3)n2)cc1NC(=O)c1cnc2ccccn12` [F22], for which the negative-log IC50 (pIC50) (1% FBS) was 7.25.

For `COC(=O)NC1(c2nc(-c3ccc(C)c(NC(=O)c4cnc5ccccn45)c3)no2)CC1` [F24], under “1% FBS”, the negative-log IC50 (pIC50) was 7.24.

Consider `Cc1ccc(-c2noc(C3CC(O)(C(F)(F)F)C3)n2)cc1NC(=O)c1cnc2ccccn12` (stereo not drawn) [F25, N-(5-(5-(3-hydroxy-3-(trifluoromethyl)cyclobutyl)-1,2,4-oxadiazol-3-yl)-2-methylphenyl)imidazo[1,2-a]pyridine-3-carboxamide], for which, under “1% FBS”, the pIC50 is 7.89.

Take `Cc1ccc(-c2noc(CNC(=O)OC3(C)CC3)n2)cc1NC(=O)c1cnc2ccccn12` [F26]: the negative-log IC50 (pIC50) (1% FBS) was 7.24.

On to `COC(=O)NC1(c2nc(-c3ccc(C)c(NC(=O)c4cnc5ccccn45)c3)no2)CCC1` [F27], for which the negative-log IC50 (pIC50) (1% FBS) was 7.16.

On to `Cc1ccc(-c2noc(C3(NS(C)(=O)=O)CCC3)n2)cc1NC(=O)c1cnc2ccccn12` [F28], for which the pIC50 (1% FBS) was 7.02.

As to `Cc1ccc(-c2noc(C3(N(C)C)CC3)n2)cc1NC(=O)c1cnc2ccccn12` [F29, N-(5-(5-(1-(dimethylamino)cyclopropyl)-1,2,4-oxadiazol-3-yl)-2-methylphenyl)imidazo[1,2-a]pyridine-3-carboxamide], the pIC50 (1% FBS) is 7.24.

As for `C=C1CC(c2nc(-c3ccc(C)c(NC(=O)c4cnc5ccccn45)c3)no2)C1` [F30], under “1% FBS”, the negative logarithm of the IC50 (pIC50) was 7.80.

For the compound `Cc1ccc(-c2noc(C3CC(O)(C4CC4)C3)n2)cc1NC(=O)c1cnc2ccccn12` (stereo not drawn) [F31, N-(5-(5-(3-cyclopropyl-3-hydroxycyclobutyl)-1,2,4-oxadiazol-3-yl)-2-methylphenyl)imidazo[1,2-a]pyridine-3-carboxamide], the negative-log IC50 (pIC50) (1% FBS) is 7.30.

Turning to `Cc1ccc(-c2noc(C3CC(=CCCO)C3)n2)cc1NC(=O)c1cnc2ccccn12` (stereo not drawn) [F32, N-(5-(5-(3-(3-hydroxypropylidene)cyclobutyl)-1,2,4-oxadiazol-3-yl)-2-methylphenyl)imidazo[1,2-a]pyridine-3-carboxamide], the pIC50 (1% FBS) was 7.60.

Regarding `Cc1ccc(-c2noc(C3CC4(CCCO4)C3)n2)cc1NC(=O)c1cnc2ccccn12` (stereo not drawn) [F33], the pIC50 (1% FBS) is 7.06.

As for `Cc1ccc(-c2noc(CNC3CC(F)(F)C3)n2)cc1NC(=O)c1cnc2ccccn12` [F34], for the setting “1% FBS”, the negative-log IC50 (pIC50) is 7.80.

For `Cc1ccc(-c2noc(COC3CC(F)(F)C3(F)F)n2)cc1NC(=O)c1cnc2ccccn12` (stereo not drawn) [F35], the negative logarithm of the IC50 (pIC50) (1% FBS) is 8.52.

As to `Cc1ccc(-c2noc(C3CC(F)C3)n2)cc1NC(=O)c1cnc2ccccn12` (stereo not drawn) [F36, N-(5-(5-(3-fluorocyclobutyl)-1,2,4-oxadiazol-3-yl)-2-methylphenyl)imidazo[1,2-a]pyridine-3-carboxamide], where the note is “1% FBS”, the negative-log IC50 (pIC50) is 7.55.

Regarding `Cc1ccc(-c2noc(C3CC(F)(F)C3)n2)cc1NC(=O)c1cnc2ccc(CO)cn12` [F37, N-(5-(5-(3,3-difluorocyclobutyl)-1,2,4-oxadiazol-3-yl)-2-methylphenyl)-6-(hydroxymethyl)imidazo[1,2-a]pyridine-3-carboxamide], the pIC50 (1% FBS) is 7.22.

With `Cc1ccc(-c2noc(C3CC(F)(F)C3)n2)cc1NC(=O)c1cnc2ccc(COCCO)cn12` [F38], the negative logarithm of the IC50 (pIC50) (1% FBS) was 7.60.

Regarding `COCc1ccc2ncc(C(=O)Nc3cc(-c4noc(C5CC(F)(F)C5)n4)ccc3C)n2c1` [F39], for the setting “1% FBS”, the pIC50 was 7.43.

For `Cc1ccc(-c2noc(C3CC(F)(F)C3)n2)cc1NC(=O)c1cnc2ccc(-c3cn[nH]c3)cn12` [F40, N-(5-(5-(3,3-difluorocyclobutyl)-1,2,4-oxadiazol-3-yl)-2-methylphenyl)-6-(1H-pyrazol-4-yl)imidazo[1,2-a]pyridine-3-carboxamide], the pIC50 (1% FBS) was 8.05.

As to `Cc1ccc(-c2noc(C3CC(F)(F)C3)n2)cc1NC(=O)c1cnc2ccc(-c3cnn(CCO)c3)cn12` [F41], the pIC50 (1% FBS) is 7.96.

On to `Cc1ccc(-c2noc(C3CC(F)(F)C3)n2)cc1NC(=O)c1cnc2ccc(-c3cnn(C)c3)cn12` [F42], for which, under “1% FBS”, the pIC50 is 8.15.

With `Cc1ccc(-c2noc(C3CC(F)(F)C3)n2)cc1NC(=O)c1cnc2ccc(-c3ccn(C)n3)cn12` [F43], the pIC50 (1% FBS) was 7.92.

As to `Cc1ccc(-c2noc(C3CC(F)(F)C3)n2)cc1NC(=O)c1cnc2ccc(-c3cnn(CC(C)(C)O)c3)cn12` [F44], where the note is “1% FBS”, the pIC50 is 8.22.

With `Cc1ccc(-c2noc(C3CC(n4cccn4)C3)n2)cc1NC(=O)c1cnc2ccccn12` (stereo not drawn) [F45, N-(5-(5-(3-(1H-pyrazol-1-yl)cyclobutyl)-1,2,4-oxadiazol-3-yl)-2-methylphenyl)imidazo[1,2-a]pyridine-3-carboxamide], under “1% FBS”, the negative-log IC50 (pIC50) is 7.15.

As for `Cc1ccc(-c2noc(C3CC(F)(F)C3)n2)cc1NC(=O)c1cnc2ccc(-c3cscn3)cn12` [F46], the pIC50 (1% FBS) was 7.89.

Regarding `Cn1cc(-c2ccc3ncc(C(=O)Nc4cc(-c5noc(C6CC(F)(F)C6)n5)ccc4F)n3c2)cn1` [F47], the pIC50 (1% FBS) was 7.48.

On to `CC(C)(O)Cn1cc(-c2ccc3ncc(C(=O)Nc4cc(-c5noc(C6CC(F)(F)C6)n5)ccc4F)n3c2)cn1` [F48], for which, where the note is “1% FBS”, the pIC50 was 7.80.

Turning to `Cc1ccc(-c2noc(C3CC(F)(F)C3)n2)cc1NC(=O)c1cnc2cc(C3CCN(S(C)(=O)=O)CC3)ccn12` [F49, N-(5-(5-(3,3-difluorocyclobutyl)-1,2,4-oxadiazol-3-yl)-2-methylphenyl)-7-(1-(methylsulfonyl)piperidin-4-yl)imidazo[1,2-a]pyridine-3-carboxamide], the pIC50 (1% FBS) is 7.48.

For `Cc1ccc(-c2noc(C3CC(F)(F)C3)n2)cc1NC(=O)c1cnc2ccc(-c3cnn(CCN4CCOCC4)c3)cn12` [F50], the negative-log IC50 (pIC50) (1% FBS) is 7.59.

`O=C(Nc1cc(-c2noc(C3CC(F)(F)C3)n2)ccc1F)c1cnc2ccc(-c3cnn(CCN4CCOCC4)c3)cn12` [F51]: the pIC50 (1% FBS) was 7.07.
